Laboratory results: BindingDB's records for doi:10.1016/j.bmcl.2017.04.089 (Mcdaniel College, 2017)

Biological target: Protein mono-ADP-ribosyltransferase PARP14 (Homo sapiens, UniProt Q460N5)
Assay: Inhibition of recombinant human His6-tagged PARP14 catalytic/WWE domain (1459 to 1801 residues) expressed in Escherichia coli BL21(DE3) preincubated for 15 mins followed by biotinylated NAD+ addition by chemiluminescence assay

Chain of Protein mono-ADP-ribosyltransferase PARP14 (Q460N5 whole entry, the tested form may be a part): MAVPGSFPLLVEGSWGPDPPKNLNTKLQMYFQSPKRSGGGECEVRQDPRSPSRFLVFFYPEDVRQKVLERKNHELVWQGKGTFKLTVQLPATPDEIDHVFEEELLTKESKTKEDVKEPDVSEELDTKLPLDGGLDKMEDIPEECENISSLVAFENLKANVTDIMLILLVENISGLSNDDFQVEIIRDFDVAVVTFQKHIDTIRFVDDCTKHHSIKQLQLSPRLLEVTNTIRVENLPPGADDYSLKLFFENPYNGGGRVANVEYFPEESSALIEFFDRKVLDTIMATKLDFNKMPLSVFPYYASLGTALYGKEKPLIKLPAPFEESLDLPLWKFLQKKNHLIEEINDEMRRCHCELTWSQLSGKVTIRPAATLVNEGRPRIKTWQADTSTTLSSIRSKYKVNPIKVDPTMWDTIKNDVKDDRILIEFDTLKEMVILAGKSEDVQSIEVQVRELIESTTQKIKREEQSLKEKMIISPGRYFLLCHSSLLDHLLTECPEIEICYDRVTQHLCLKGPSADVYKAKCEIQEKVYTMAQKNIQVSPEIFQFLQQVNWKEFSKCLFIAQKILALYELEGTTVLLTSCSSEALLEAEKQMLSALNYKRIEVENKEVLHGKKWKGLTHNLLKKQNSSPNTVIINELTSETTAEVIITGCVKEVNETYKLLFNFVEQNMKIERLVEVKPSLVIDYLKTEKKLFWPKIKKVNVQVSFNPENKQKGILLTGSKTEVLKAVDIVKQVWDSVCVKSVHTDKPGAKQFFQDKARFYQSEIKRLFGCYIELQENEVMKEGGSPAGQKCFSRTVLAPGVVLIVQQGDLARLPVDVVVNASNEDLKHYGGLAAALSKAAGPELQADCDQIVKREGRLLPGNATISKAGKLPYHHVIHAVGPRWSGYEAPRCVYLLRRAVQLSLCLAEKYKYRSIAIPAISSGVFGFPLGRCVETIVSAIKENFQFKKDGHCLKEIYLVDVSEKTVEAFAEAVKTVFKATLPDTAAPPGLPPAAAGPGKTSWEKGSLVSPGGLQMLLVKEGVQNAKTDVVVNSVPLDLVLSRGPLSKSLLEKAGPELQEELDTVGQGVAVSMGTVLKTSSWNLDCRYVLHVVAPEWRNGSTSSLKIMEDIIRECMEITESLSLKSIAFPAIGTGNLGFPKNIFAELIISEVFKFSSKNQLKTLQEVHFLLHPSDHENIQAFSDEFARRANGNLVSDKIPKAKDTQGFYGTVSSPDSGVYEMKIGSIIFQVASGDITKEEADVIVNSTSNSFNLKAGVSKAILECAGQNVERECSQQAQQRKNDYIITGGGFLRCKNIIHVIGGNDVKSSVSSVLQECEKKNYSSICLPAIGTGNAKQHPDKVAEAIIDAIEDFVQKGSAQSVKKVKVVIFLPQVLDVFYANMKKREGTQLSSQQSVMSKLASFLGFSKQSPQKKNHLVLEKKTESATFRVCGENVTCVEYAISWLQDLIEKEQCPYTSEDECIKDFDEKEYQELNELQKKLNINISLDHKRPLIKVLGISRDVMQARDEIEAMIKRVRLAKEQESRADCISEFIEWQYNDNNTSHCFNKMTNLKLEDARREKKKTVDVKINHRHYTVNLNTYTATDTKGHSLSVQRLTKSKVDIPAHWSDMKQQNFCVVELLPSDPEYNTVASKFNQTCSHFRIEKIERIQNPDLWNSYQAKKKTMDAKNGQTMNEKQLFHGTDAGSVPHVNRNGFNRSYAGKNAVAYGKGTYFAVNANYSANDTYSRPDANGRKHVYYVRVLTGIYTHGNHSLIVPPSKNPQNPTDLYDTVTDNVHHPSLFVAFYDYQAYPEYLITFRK

- IC50: 1020 nM
SMILES: NC(=O)c1cccc(NC(=O)/C=C\C(=O)N2CCCC(Oc3ccccc3)C2)c1 (stereo unspecified)
